The values below come from US20220257571A1, “INHIBITOR OF MAP KINASE INTERACTING SERINE/THREONINE KINASE 1 (MNK1) AND MAP KINASE INTERACTING SERINE/THREONINE KINASE 2 (MNK2), CANCER THERAPY AND THERAPEUTIC COMBINATIONS” (FUNPACIÓ HOSPITAL UNIVERSITARI VALL D'HEBRON - INSTITUT DE …, priority 2019, published 2022).

For data set [1], the system named is IMR90 cells, non-transformed fibroblasts. Description: cell growth (crystal violet) and cell death (PI/Hoechst) in IMR90 cells. The data set is classed as cell-based. As to the method: (§1) Commercially available MDA-MB-231, MDA-MB-468, MCF7 and A375M, IMR90 (IMR-90 (ATCC® CCL-186TH) cells were grown at 37° C. and 5% CO2 in DMEM medium (Dulbecco's Modified Eagle Medium, 4.5 g/I glucose; 30 mg/I L-Glutamine (Gibco)) supplemented with 10% foetal bovine serum, 100 U/ml penicillin and 100 μg/ml streptomycin.
Knock-out mice of the EB1 target kinases MNK1 and MNK2 are viable (Ueda et al 2004; PMID: 15254222). […] Cell growth was measured by crystal violet assay. Cell death was determined by Propidium Iodid (PI)/Hoechst staining and the ratio of dead cell (PI positive) among all analyzed cells (Hoechst) was determined. Cis-platin treatment was included as positive control. […] Minimal side effects for patients are therefore predictable.

Data set [2] has as its system MDA-MB-231 cells. The data set can be described thus: in vitro proliferation assay (crystal violet), MDA-MB-231. In kind it is cell-based, human. Particulars: tumour cells MDA-MB-231, concentrations necessary to inhibit MNK activity. As to the method: as §1
In 96-well plates, 5000 cells were seeded for each condition. After 24 h, the cells were treated with the compound at the corresponding concentration. The stocks of compounds were prepared in 100% DMSO at a concentration 200 times more concentrated than the treatment concentration. Thus, in all cases, the final concentration of DMSO in the medium is 0.5%. After incubation, the medium was removed and the cells were fixed with 4% PFA (100 μl per well) for 30 minutes. Two washes with PBS were performed.
Cells were stained with crystal violet (0.5% in EtOH): 100 μl were added to each well, stirred for 15 minutes, washed with water and left to dry. The content of each well was dissolved in 200 μl of 15% AcOH and the absorbance thereof was measured at 595 nm.

Data set [3] has as its target T1, MNK2 (Homo sapiens, UniProt Q9HBH9).
T1 construct: purchased Proqinase
Description: radiometric kinase assay (33PanQinase Activity Assay), MNK2. The data set is classed as biochemical. Particulars: after treatment with 10 μM compound; ATP 0.3 μM; read-out: residual activity of MNK2.
Description: The assays were carried out in 96-well FlashPlates™ by PerkinElmer (Boston, Mass., USA) with a reaction volume of 50 μl. The reaction cocktail was pipetted in 4 steps: (1) 20 μl buffer, (2) 5 μl ATP solution (in H2O), (3) 5 μl compound (in 10% DMSO) and (4) 20 μl enzyme/substrate mixture. […]

The test system of data set [4] is 320-kinase panel. The data set can be described thus: selectivity on a 320-kinase panel. In kind it is biochemical. Particulars: 1 μM. As to the method:
(§2) The kinase activity of the compound was measured by a radiometric kinase assay (^33PanQinase® Activity Assay) carried out by Proqinase (www.proqinase.com).
(§3) The assays were carried out in 96-well FlashPlates™ by PerkinElmer (Boston, Mass., USA) with a reaction volume of 50 μl. The reaction cocktail was pipetted in 4 steps: (1) 20 μl buffer, (2) 5 μl ATP solution (in H2O), (3) 5 μl compound (in 10% DMSO) and (4) 20 μl enzyme/substrate mixture. Lastly, the cocktail contained 70 mM HEPES-NaOH pH 7.5, 3 mM MgCl2, 3 mM MnCl2, 3 μM sodium orthovanadate, 1.2 mM DTT, 50 μg/ml PEG20000, ATP (1 μM for MNK1 and 0.3 μM for MNK2), [γ-^33P]-ATP (approx. […] per well), protein kinase (variable amounts depending on the batch) and substrate (2 μg/50 μl).
Reaction cocktails were incubated at 30° C. for 60 minutes. The reaction was stopped with 50 μl of 2% H3PO4 (v/v), the plates were sucked, they were washed twice with 200 μl of 0.9% NaCl (w/v) and the incorporation of ^33Pi (MicroBeta microplate scintillation counter, Wallac) was determined. […]
(§4) The residual activity (in %) for each well of a particular plate was calculated using the following formula (wherein high control is the kinase activity in absence of an inhibitor and low control is the radioactivity value of the substrate in absence of a kinase).
(§5) To study selectivity, residual activity was measured at 1 μM from a 320-kinase panel.

The target of data set [5] is T2, MNK1 (Homo sapiens, UniProt Q9BUB5).
T2 construct: purchased Proqinase
The data set can be described thus: radiometric kinase assay (33PanQinase Activity Assay), MNK1. In kind it is biochemical. As to the method: as §2, §3
Reaction cocktails were incubated at 30° C. for 60 minutes. The reaction was stopped with 50 μl of 2% H3PO4 (v/v), the plates were sucked, they were washed twice with 200 μl of 0.9% NaCl (w/v) and the incorporation of ^33Pi (MicroBeta microplate scintillation counter, Wallac) was determined. All assays were performed with a Beckman Coulter/SAGIAN™ system.
as §4
To screen compounds, the residual activity of both kinases was analysed after treatment with 10 μM of the compounds.
as §5

T2 sequence (Q9BUB5 whole entry): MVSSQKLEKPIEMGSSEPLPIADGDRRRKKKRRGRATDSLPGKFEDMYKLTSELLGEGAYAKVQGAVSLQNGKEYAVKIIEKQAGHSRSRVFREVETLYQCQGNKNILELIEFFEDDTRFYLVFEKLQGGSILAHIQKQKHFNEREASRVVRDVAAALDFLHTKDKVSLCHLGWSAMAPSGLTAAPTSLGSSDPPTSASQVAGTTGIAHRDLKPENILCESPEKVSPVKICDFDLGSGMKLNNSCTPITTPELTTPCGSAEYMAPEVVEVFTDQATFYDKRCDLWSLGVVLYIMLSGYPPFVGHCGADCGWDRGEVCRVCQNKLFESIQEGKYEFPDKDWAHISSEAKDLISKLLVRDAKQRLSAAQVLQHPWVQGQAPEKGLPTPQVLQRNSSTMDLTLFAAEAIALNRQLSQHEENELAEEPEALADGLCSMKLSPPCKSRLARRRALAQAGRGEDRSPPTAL
T1 sequence (Q9HBH9 whole entry): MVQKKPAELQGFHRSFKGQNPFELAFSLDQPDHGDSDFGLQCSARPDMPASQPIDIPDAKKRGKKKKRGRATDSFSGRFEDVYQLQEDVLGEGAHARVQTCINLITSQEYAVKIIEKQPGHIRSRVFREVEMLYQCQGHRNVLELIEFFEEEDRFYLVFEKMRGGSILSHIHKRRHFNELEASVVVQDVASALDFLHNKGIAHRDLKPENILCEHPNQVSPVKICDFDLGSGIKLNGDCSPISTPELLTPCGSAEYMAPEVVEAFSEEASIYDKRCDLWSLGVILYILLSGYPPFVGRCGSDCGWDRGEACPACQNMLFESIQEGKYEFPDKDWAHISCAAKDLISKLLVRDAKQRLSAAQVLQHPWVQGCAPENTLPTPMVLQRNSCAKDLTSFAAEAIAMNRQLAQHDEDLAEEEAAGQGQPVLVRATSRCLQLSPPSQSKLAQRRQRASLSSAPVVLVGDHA

For the molecule `Nc1n[nH]c2nc(-c3ccccc3)cc(-c3ccccc3)c12` [EB1, 4,6-diphenyl-1H-pyrazolo[3,4-b]pyridin-3-amine], the cell death result in data set [1] (IMR90, PI/Hoechst staining) is listed as “does not induce cell death”. The cell growth arrest entry in data set [1] (IMR90, crystal violet) was “does not cause significant cell growth arrest”. For the same molecule, the “effect on cell growth” value in data set [2] is reported as “does not affect the cell growth”. The remaining activity at 10 µM amounted to 52% in data set [3] and 14% in data set [5] (after treatment with 10 μM compound, ATP 1 μM, read-out: residual activity of MNK1). In addition, the “number of other kinases affected in an equivalent manner” value in data set [4] is on record as 16. The inhibition (in general, how much of the control response was suppressed) at 1 µM in data set [5] (at 1 uM, kinase panel) amounted to 48%.
